# Measured values: ChEMBL document CHEMBL1201862, “PubChem BioAssay data set” (2004)
# Activity calls are given as the source filed them.
# Experiments:
# [1] = test system: Vero; assay: viability of Vero cells under compound – cytotoxicity control for flavivirus capping enzyme inhibitors (AID 588742); type: functional; conditions: Chlorocebus sabaeus
# [2] = general cell-killing toxicity readout – plate reader, dry powder samples, cytotoxicity control for PAX8 inhibitor project, dose response (AID 743021); type: functional, cell-based
# [3] = target: T1, Beta-galactosidase (Escherichia coli, UniProt Q8VNN2); assay: detection-enzyme interference by beta-gal modulators – biochemical, E. coli enzyme, set 3, artefact control for CCR6 antagonist project, dose response (AID 504712); type: functional
# T1 sequence (Q8VNN2 whole entry): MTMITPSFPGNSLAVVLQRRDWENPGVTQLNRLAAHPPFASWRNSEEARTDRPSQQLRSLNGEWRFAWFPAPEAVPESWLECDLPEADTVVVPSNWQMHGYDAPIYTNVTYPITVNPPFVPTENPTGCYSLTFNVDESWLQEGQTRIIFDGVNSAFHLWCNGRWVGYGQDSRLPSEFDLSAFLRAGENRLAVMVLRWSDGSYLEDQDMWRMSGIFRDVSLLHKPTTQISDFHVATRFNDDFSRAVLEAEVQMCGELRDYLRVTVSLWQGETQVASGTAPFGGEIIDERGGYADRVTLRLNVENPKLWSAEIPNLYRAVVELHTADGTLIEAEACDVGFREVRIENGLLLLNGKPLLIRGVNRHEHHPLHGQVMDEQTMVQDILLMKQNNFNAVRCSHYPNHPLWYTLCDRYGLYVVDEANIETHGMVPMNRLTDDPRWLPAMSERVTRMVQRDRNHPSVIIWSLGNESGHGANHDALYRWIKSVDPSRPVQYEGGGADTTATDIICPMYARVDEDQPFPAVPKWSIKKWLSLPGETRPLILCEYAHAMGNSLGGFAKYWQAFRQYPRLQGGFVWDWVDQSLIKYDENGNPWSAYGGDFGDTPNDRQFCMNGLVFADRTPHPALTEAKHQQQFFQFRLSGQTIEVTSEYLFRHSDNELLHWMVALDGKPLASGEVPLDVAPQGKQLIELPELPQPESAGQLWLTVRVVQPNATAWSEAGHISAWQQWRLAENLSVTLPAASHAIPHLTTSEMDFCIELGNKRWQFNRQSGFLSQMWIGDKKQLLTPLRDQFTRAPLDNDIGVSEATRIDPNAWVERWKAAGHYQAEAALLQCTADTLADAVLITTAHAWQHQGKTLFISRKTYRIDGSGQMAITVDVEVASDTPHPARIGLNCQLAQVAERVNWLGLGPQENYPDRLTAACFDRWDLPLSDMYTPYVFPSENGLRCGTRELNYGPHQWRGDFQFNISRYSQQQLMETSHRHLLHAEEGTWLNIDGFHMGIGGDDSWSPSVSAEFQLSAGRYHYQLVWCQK
# [4] = target: Genome polyprotein (dengue virus type 2, UniProt P29990); assay: flavivirus cap methylation enzyme inhibition – biochemical, confirmation dose response, primary screen (AID 588689); type: functional
# [5] = viability loss in A549 lung cancer cells – cell-based, cherry-picks, […], cytotoxicity control, dose response (AID 1053119); type: functional
# [6] = viability loss in HEK293 kidney cells – cell-based, cherry-picks, set 5, cytotoxicity control, dose response (AID 1053117); type: functional
# [7] = target: Protein Tat (Human immunodeficiency virus type 1 group M subtype B (isolate HXB2)(HIV-1), UniProt P04608); type: functional;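 note: tat binding to TAR RNA read out by fluorescence polarization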
# Chain of Protein Tat (P04608 whole entry): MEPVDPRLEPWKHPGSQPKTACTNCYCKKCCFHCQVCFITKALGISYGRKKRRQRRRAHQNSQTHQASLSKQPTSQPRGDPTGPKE
# [8] = viability loss in HeLa cells – cytotoxicity control for MgcRacGAP inhibitor project, dose response (AID 624300); type: functional
# [9] = blockers of FN fibrillogenesis by fibroblasts – AH1F cells, Alexa488-FN fluorescence, cherry-picks, dose response (AID 1035475); type: functional, cell-based
# [10] = viability loss in HepG2 hepatoma cells – cell-based, cherry-picks, set 5, cytotoxicity control, dose response (AID 1053118); type: functional
# [11] = target: C-C chemokine receptor type 6 (Homo sapiens, UniProt P51684); assay: antagonism of CCR6 beta-arrestin recruitment – cell-based, luminescent beta-arrestin readout, dose response (AID 504728); type: functional
# Chain of C-C chemokine receptor type 6 (P51684 whole entry): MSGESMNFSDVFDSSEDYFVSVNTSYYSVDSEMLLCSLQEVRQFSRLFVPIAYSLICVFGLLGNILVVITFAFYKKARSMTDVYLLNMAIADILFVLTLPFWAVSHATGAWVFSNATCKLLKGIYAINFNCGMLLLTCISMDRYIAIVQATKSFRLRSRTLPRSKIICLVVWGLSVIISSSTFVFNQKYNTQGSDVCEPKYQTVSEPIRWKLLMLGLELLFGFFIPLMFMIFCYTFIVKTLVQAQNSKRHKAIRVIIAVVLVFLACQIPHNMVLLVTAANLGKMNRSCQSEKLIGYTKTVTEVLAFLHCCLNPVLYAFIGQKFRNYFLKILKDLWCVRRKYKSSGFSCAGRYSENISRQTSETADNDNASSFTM
# [12] = target: Heat shock protein HSP 90-alpha (Homo sapiens, UniProt P07900); type: functional, organism-based
# [13] = viability loss in THP-1 monocytes – THP-1 cells, cytotoxicity control for Vif-APOBEC3G degradation inhibitor project, dose response (AID 1117359); type: functional; conditions: THP-1
# [14] = target: Paired box protein Pax-8 (Homo sapiens, UniProt Q06710); assay: PAX8 transcriptional activity inhibition in RMG-I – RMG-I cells, luciferase, cherry-pick, dose response (AID 687027); type: functional, cell-based;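 note: luciferase reporter driven by Pax8 target thyroperoxidase promoter measured by SteadyGlo luminescence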
# Chain of Paired box protein Pax-8 (Q06710 whole entry): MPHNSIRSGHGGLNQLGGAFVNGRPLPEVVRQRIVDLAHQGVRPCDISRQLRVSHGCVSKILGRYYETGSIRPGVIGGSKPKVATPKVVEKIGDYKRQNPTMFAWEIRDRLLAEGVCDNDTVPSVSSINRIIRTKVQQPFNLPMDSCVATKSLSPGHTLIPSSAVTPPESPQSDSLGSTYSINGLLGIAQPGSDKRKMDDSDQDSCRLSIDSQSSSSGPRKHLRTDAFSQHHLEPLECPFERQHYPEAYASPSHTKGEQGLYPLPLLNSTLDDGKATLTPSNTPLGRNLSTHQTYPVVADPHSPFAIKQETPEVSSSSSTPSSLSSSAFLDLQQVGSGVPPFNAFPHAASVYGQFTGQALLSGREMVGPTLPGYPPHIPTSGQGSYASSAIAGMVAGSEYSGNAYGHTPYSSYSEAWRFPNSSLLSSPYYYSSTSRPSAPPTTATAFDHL
# [15] = target: T2, Rac GTPase-activating protein 1 (Homo sapiens, UniProt Q9H0H5); assay: blockers of MgcRacGAP-driven Rac1 GTP hydrolysis – biochemical, ADP Hunter fluorescence, primary and confirmatory, confirmation (AID 624330); type: functional
# T2 sequence (Q9H0H5 whole entry): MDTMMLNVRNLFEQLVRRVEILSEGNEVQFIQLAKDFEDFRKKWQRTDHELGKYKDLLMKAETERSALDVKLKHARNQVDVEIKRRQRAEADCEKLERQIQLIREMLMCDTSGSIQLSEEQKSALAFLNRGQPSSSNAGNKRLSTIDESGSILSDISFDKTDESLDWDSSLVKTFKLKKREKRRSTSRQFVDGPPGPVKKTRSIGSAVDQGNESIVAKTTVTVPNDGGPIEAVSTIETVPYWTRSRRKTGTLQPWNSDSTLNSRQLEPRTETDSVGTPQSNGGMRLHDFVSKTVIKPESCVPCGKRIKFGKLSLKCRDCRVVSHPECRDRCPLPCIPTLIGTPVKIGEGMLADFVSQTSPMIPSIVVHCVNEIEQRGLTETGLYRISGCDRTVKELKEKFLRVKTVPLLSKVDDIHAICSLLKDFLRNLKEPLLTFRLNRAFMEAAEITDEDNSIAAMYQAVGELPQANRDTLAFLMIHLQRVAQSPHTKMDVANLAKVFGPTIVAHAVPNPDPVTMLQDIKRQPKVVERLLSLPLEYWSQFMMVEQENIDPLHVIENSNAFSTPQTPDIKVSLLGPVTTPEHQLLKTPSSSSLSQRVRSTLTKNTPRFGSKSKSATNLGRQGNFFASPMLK
# [16] = target: E3 ubiquitin-protein ligase Mdm2 (Homo sapiens, UniProt Q00987); assay: MDM2-luc reporter signal enhancers, multi-concentration potency testing, MDM2 ubiquitin-protein ligase inhibitor program, whole-cell format, luminescence detection, 384-well microplate (AID 1394); type: functional;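 note: MDM2 E3 inhibitors raise luminescence so EC50 is for signal enhancement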
# Chain of E3 ubiquitin-protein ligase Mdm2 (Q00987 whole entry): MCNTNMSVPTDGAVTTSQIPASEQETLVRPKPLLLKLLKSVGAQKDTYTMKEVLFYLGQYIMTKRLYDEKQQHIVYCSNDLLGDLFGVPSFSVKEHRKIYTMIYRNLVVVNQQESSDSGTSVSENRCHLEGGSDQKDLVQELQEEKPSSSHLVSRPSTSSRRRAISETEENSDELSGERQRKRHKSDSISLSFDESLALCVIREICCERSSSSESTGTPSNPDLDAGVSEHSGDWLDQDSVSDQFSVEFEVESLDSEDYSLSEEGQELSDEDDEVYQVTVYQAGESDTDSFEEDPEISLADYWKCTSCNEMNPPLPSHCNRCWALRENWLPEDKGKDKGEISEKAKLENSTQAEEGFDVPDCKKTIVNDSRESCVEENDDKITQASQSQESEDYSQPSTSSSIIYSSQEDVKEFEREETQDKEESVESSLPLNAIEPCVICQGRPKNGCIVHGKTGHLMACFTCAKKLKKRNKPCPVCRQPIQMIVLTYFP
# [17] = Luminescence-based dose response cell-based high throughput screening assay for cytotoxic compounds using the IEC-6 intestinal epithelial cell line. [Related pubchem assays: 1858 (Summary AID.), 1825 (Counterscreen.), 1907 (Confirmation screen.)]; type: functional
# [18] = target: T1, Beta-galactosidase; type: functional
# [19] = target: T3, Kappa-type opioid receptor (Homo sapiens, UniProt P41145); type: functional
# T3 sequence (P41145 whole entry): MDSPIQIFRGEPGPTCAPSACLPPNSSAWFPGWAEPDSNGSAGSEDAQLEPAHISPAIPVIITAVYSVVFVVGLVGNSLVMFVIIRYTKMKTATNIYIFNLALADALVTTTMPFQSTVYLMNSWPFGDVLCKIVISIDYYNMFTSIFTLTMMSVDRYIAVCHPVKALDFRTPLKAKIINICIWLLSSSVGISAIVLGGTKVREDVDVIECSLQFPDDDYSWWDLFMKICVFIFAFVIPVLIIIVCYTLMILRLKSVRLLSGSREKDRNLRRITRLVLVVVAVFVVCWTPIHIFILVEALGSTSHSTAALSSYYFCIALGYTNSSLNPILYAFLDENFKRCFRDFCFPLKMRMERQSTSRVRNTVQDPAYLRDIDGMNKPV
# [20] = target: T4, Type-1 angiotensin II receptor (Homo sapiens, UniProt P30556); assay: antagonism of angiotensin II type 1 receptor – cell-based, uHTS hits, selectivity assay for APJ receptor antagonist project, dose response (AID 463214); type: functional;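 note: antagonist potency against angiotensin II stimulated AT1 response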
# T4 sequence (P30556 whole entry): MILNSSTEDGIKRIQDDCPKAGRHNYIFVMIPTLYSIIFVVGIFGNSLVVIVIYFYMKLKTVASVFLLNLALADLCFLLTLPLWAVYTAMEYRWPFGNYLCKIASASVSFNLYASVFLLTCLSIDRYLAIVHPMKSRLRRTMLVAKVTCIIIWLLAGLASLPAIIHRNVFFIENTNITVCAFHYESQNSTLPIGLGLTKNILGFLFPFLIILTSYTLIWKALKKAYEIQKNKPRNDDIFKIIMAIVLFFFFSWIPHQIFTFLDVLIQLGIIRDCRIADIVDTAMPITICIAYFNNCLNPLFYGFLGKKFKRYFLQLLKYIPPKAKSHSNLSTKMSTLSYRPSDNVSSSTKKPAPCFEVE
# [21] = target: T3, Kappa-type opioid receptor; type: functional; remark: listed apart in the source
# [22] = HEK-293T viability loss after treatment – luminescence, T-cell screen hits, cytotoxicity control for TCR NF-kB inhibitor project, dose response (AID 489026); type: functional, cell-based;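 note: cells exposed to compound about 14 hours before the viability readout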
# [23] = target: T1, Beta-galactosidase; assay: PubChem AID 485352; type: functional
# [24] = target: T5, Dual specificity protein phosphatase 6 (Rattus norvegicus, UniProt Q64346); type: functional
# T5 sequence (Q64346 whole entry): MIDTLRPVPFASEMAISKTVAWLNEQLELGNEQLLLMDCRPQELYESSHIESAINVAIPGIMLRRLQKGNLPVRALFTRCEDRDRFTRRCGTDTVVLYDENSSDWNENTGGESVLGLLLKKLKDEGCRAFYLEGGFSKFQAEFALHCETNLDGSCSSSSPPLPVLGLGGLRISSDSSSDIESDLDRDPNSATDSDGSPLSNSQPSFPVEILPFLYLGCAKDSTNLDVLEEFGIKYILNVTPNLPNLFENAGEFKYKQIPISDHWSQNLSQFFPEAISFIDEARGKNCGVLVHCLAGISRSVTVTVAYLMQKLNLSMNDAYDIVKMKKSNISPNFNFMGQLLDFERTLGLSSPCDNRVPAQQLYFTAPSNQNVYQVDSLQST
# [25] = target: T6, Tyrosine-protein phosphatase non-receptor type 7 (Homo sapiens, UniProt P35236); type: functional
# T6 sequence (P35236 whole entry): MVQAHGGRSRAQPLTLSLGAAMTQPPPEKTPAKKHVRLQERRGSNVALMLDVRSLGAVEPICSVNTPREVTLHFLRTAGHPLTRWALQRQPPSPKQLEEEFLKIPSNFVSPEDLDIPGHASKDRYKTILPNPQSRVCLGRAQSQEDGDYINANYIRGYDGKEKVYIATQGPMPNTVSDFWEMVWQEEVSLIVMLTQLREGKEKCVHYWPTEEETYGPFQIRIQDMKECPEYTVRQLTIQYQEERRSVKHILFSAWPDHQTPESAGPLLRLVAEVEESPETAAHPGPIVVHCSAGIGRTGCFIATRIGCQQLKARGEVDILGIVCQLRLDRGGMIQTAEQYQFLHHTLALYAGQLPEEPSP
# [26] = target: T7, Dual specificity protein phosphatase 3 (Homo sapiens, UniProt P51452); assay: SAR VHR1 Fluorescent Assay for In Vitro dose response studies. [Related pubchem assays (depositor defined):AID1654, AID1661, AID1878, AID1992, AID2004, AID2070, AID2085]; type: functional
# T7 sequence (P51452 whole entry): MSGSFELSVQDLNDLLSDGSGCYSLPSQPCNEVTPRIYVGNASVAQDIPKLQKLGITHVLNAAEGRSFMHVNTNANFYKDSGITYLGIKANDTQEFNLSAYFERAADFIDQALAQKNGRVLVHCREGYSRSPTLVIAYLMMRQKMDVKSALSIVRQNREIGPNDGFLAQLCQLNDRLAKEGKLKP
# [27] = target: T5, Dual specificity protein phosphatase 6
# [28] = target: Glyceraldehyde-3-phosphate dehydrogenase (Homo sapiens, UniProt P04406)
# Chain of Glyceraldehyde-3-phosphate dehydrogenase (P04406 whole entry): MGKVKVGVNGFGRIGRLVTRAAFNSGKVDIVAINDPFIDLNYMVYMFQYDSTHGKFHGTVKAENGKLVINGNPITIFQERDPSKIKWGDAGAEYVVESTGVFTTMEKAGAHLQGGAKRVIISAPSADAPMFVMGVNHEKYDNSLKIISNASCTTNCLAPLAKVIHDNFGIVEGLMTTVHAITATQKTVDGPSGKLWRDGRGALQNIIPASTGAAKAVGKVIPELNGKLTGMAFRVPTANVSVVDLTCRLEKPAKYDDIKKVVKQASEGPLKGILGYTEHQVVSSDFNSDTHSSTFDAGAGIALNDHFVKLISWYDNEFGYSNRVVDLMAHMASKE
# [29] = target: T6, Tyrosine-protein phosphatase non-receptor type 7; assay: redox-active compounds inhibiting HePTP phosphatase – biochemical, fluorescence, mechanism study (AID 2068); type: functional
# [30] = target: T7, Dual specificity protein phosphatase 3; assay: MOA VHR1 Fluorescent secondary assay for identification of redox-state modulating compounds. [Related pubchem assays (depositor defined):AID1654, AID1661, AID1878, AID1957]
# [31] = target: T8, Carboxy-terminal domain RNA polymerase II polypeptide A small phosphatase 1 (Homo sapiens, UniProt Q9GZU7); assay: CTDSP1 inhibitors, concentration-response, biochemical, absorbance readout, ultra-high-throughput screen actives (AID 540297); type: functional
# T8 sequence (Q9GZU7 whole entry): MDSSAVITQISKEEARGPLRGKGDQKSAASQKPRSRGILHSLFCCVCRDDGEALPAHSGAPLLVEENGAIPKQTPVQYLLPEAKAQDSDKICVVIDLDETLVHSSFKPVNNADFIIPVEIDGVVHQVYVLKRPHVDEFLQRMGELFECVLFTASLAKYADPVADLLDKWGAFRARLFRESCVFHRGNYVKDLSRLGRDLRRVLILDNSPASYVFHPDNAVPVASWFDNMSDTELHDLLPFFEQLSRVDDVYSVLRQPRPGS
# [32] = target: T9, Eukaryotic translation initiation factor 4H (Homo sapiens, UniProt Q15056); assay: inhibitors of translation initiation factor eIF4H – SAR follow-up (AID 435011); type: functional
# [33] = target: T10, Polyadenylate-binding protein 1 (Homo sapiens, UniProt P11940); assay: PABP inhibition in translation initiation, SAR follow-up (AID 435018); type: functional
# T10 sequence (P11940 whole entry): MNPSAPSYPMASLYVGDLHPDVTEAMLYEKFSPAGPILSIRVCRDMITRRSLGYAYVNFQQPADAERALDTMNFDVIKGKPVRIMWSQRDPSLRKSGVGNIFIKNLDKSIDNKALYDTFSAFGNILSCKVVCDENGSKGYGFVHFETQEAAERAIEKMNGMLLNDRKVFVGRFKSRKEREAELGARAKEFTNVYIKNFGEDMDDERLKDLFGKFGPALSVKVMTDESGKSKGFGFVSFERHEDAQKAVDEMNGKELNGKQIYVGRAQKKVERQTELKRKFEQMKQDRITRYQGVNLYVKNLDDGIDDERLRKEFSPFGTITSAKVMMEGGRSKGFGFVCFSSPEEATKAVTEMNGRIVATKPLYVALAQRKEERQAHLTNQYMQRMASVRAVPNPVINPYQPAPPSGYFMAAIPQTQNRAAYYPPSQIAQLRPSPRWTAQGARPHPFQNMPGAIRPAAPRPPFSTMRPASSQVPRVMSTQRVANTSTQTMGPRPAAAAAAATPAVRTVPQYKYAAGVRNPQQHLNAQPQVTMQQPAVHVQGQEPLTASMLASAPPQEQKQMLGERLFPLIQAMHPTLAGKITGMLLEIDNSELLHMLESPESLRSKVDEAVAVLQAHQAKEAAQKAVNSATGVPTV
# [34] = target: T9, Eukaryotic translation initiation factor 4H; assay: eIF4H binding inhibition – biochemical, uHTS, fluorescence polarization, translation initiation inhibitor project, primary screen (AID 2012)
# [35] = target: T10, Polyadenylate-binding protein 1; assay: blockers of PABP interaction with poly(A) – biochemical, fluorescence polarization, […] (AID 2014)
# [36] = BJeH cell viability loss – BJeH cells, dry powder, counter-screen for Ras selective lethality project, dose response (AID 493054); type: functional, cell-based
# [37] = HRAS-V12 fibroblast viability reduction – cell-based, Alamar Blue, dry powder, Ras selective lethality project, primary screen (AID 493045); type: functional; conditions: BJeLR
# [38] = BJeHLT cell viability loss – BJeHLT cells, dry powder, counter-screen for Ras selective lethality project, dose response (AID 493052); type: functional, cell-based; conditions: Homo sapiens
# [39] = DRD BJ cell killing, Ras synthetic lethality – DRD BJ fibroblasts, HRASV12, dry powder, dose response (AID 493049); type: functional, cell-based
smiles,measurement,setting,value
CC1OC(CC(=O)O)CC2=C1C(=O)c1c(O)cccc1C2=O (centres undefined) [NANAOMYCIN],CC50,[1],0.72 µM (active)
same,AC50,[2],3.45 µM (active)
same,IC50,[3],> 66.6 µM (inactive)
same,IC50,[4],5.04 µM (active)
same,AC50,[5],0.485 µM (active)
same,AC50,[6],2.5 µM (active)
same,IC50,[7],> 100 µM (active)
same,CC50,[8],5.86 µM (active)
same,AC50,[9],0.779 µM (active)
same,AC50,[10],0.37 µM (active)
same,IC50,[11],> 66.6 µM (inactive)
same,AC50,[12],0.262 µM (active)
same,CC50,[13],0.69 µM (active)
same,AC50,[14],0.469 µM (active)
same,IC50,[15],76.4 µM (active)
COc1ccc(C[S+]([O-])/C(Cl)=C(/Cl)C(=O)Nc2ccc(OC)nc2)cc1 (centres undefined),EC50,[16],0.56 µM (active)
same,IC50,[17],1.65 µM (active)
same,EC50,[18],> 31.5 µM (inactive)
same,IC50,[19],8.26 µM
same,IC50,[20],2.92 µM (active)
same,IC50,[21],5.22 µM (active)
same,IC50,[22],31.5 µM (inactive)
same,EC50,[23],> 40 µM (inactive)
O=C(O)c1ccc(-c2ccc(/C=c3\sc4nc5ccccc5n4c3=O)o2)cc1,IC50,[24],6.59 µM (active)
same,IC50,[25],3.26 µM (active)
same,IC50,[26],33.5 µM (active)
same,IC50,[27],8.6 µM (active)
same,IC50,[28],> 100 µM (not active)
same,IC50,[29],5.78 µM (active)
same,IC50,[30],6.21 µM (active)
CC(C)c1ccc(OC(=O)c2cccc(S(=O)(=O)N3CCN(C)CC3)c2)cc1,IC50,[31],11.6 µM (active)
same,IC50,[32],27.6 µM (active)
same,IC50,[33],15.7 µM (active)
same,IC50,[34],> 100 µM (inactive)
same,IC50,[35],6.93 µM (active)
COc1ccc(N(C(=O)CCl)C(C(=O)NCCc2ccccc2)c2nc(C)cs2)cc1Cl (centres undefined),AC50,[36],32.7 µM (active)
same,AC50,[37],8.26 µM (active)
same,AC50,[38],19.8 µM (active)
same,AC50,[39],8.54 µM (active)
